{"source": "patent US8455528B2", "about": "“Imidazole derivatives useful as inhibitors of FAAH” (Merck Sharp & Dohme Corp., priority 2008, dated 2013)"}
{"molecular_target": "T1, Human FAAH (Homo sapiens, UniProt O00519)", "T1 construct": "The full length FAAH was subcloned into the mammalian expression vector, pcDEF.neo; expressed in transfected cells", "T1 sequence (O00519 1-579)": "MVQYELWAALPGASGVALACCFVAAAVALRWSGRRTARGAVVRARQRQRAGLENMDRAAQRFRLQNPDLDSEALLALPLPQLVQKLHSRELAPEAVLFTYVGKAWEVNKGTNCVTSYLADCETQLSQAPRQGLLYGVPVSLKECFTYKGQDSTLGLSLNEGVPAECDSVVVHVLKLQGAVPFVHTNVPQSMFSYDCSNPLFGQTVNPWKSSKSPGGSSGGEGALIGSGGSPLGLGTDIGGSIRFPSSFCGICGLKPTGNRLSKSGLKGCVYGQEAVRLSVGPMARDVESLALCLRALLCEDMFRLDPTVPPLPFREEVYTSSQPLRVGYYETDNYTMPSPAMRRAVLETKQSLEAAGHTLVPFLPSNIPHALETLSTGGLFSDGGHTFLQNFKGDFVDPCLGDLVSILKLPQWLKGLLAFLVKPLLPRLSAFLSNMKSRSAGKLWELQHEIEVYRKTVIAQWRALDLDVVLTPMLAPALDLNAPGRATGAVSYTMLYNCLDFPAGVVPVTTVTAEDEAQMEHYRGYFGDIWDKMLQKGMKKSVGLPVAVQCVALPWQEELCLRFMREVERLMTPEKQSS", "assay": "Human FAAH lysate assay (CHO cell lysate, AAMCA fluorescent substrate)", "assay_type": "biochemical", "conditions": "FAAH inhibition, CHO cell lysate expressing human FAAH; read-out: Human Lysate", "source_text": "To assist in assay development stable cell lines for human, murine and rat full length FAAH were developed. Human FAAH cDNA (Accession No: NM-001441.1) was purchased from Origene (Rockville, Md.). The full length FAAH was subcloned into the mammalian expression vector, pcDEF.neo, using XbaI and EcoRI restriction sites and used for stable cell line generation. CHO cells expressing FAAH were used to prepare either crude cell lysate or microsome fractions. To harvest cells, tissue culture media was decanted, the monolayer washed three times with Ca^++Mg^++ free PBS and cells recovered after 15 min in enzyme free dissociation media (Millipore Corp, Billerica, Mass.). Cells were collected by centrifuging at 2000 rpm for 15 min. and the cell pellet re-suspended with 50 mM HEPES (pH 7.4) containing 1 mM EDTA and the protease inhibitors aprotinin (1 mg/ml) and leupeptin (100 μM). […] The pellet containing FAAH-enriched microsomes was re-suspend in 50 mM HEPES, (pH 7,4) 1 mM EDTA, and any remaining DNA sheared by passage of material through a 23 gauge needle and aliquots of enzyme were store at -80° C. prior to use. […] (American Radiolabeled Chemicals; 1 mCi/ml) with FAAH (Life Sciences (1995), 56, 1999-2005 and Journal of Pharmacology and Experimented Therapeutics (1997), 283, 729-734), Analytical. Biochemistry (2003), 318, 270-5. […] Analytical. Biochemistry (2005). 343, 143-51 […] Fluorescent release as a measure of FAAH activity was monitored by reading the plate in a CytoFluor Multiplate Reader ([…]). Whole cell assay is conducted with cells harvested after rinsing tissue culture flasks three times with Ca^++Mg^++ free PBS, incubating for 10 min in Enzyme free dissociation media and centrifuging for 5 minutes at 1,000 rpm in table top centrifuge. Cells are resuspended in assay buffer at desired cell number in (4×10^4 cells/assay in 96-well format; 1×10^4 cells/assay in 384-well format) and assayed as described. […] The reaction was terminated by addition of 2 volumes of chloroform:methanol (1:1) and mixed by vortexing. […] K., et al. A fluorescence-based assay for fatty acid amide hydrolase compatible with high-throughput screening. Anal. Biochem. 343:143-51 (2005) • Wilson S. J., et l. A high-throughput-compatible assay for determining the activity of fatty acid amide hydrolase. Anal Biochem. 318:270-5 (2003).", "units": {"IC50": "nM"}}
{"compound": "Cn1c(-c2ccccc2)nc(-c2ccc(C#N)cc2)c1Sc1ccc(Cl)cc1", "note": "[Ex 2, 4-{5-[(4-Chlorophenyl)thio]-1-methyl-2-phenyl-1H-imidazol-4-yl}benzonitrile]", "IC50": 21.2}
{"compound": "CS(=O)(=O)c1ccc(-c2nc(C3CCC3)[nH]c2Sc2ccc(Cl)cc2)cc1", "note": "[Ex 13]", "IC50": 946}
{"compound": "Cn1c(C2CCC2)nc(-c2ccc(S(C)(=O)=O)cc2)c1Sc1ccc(Cl)cc1", "note": "[Ex 14]", "IC50": 26.5}
{"compound": "CC(C)c1nc(-c2ccc(S(C)(=O)=O)cc2)c(Sc2ccc(Cl)cc2)n1C", "note": "[Ex 29, 5-[(4-Chlorophenyl)thio]-2-isopropyl-1-methyl-4-[4-(methylsulfonyl)phenyl]-1H-imidazole]", "IC50": 74.4}
{"compound": "Cn1cnc(-c2ccc(C#N)cc2)c1Sc1ccc(Cl)cc1", "note": "[Ex 33, 4-{5-[(4-chlorophenyl)thio]-1-methyl-1H-imidazol-4-yl}benzonitrile]", "IC50": 363}
{"compound": "Cn1c(-c2ccccn2)nc(-c2ccc(-c3nnco3)cc2)c1Sc1ccc(Cl)cn1", "note": "[Ex 36, 5-Chloro-2-({1-methyl-4-[4-(1,3,4-oxadiazol-2-yl)phenyl]-2-pyridin-2-yl-1H-imidazol-5-yl}thio)pyridine]", "IC50": 26.9}
{"compound": "Cn1c(-c2ccccn2)nc(-c2ccc(C(O)C(F)F)cc2)c1Sc1ccc(Cl)cc1", "note": "(stereo not drawn) [Ex 57, 1-(4-{5-[(4-Chlorophenyl)thio]-1-methyl-2-pyridin-2-yl-1H-imidazol-4-yl}phenyl)-2,2-difluoroethanol]", "IC50": 21.4}
{"compound": "Cn1c(-c2ccccn2)nc(-c2ccc(-n3ccnn3)cc2)c1Sc1ccc(Cl)cc1", "note": "[Ex 66]", "IC50": 16.6}
{"compound": "Cn1c(-c2ccccn2)nc(-c2ccc(N)cc2)c1Sc1ccc(Cl)cc1", "note": "[Ex 98, 4-{5-[(4-Chlorophenyl)thio]-1-methyl-2-pyridin-2-yl-1H-imidazol-4-yl}aniline]", "IC50": 33.7}
